Experimental data taken from the supplement of paper PMC11061612.

How the values were obtained:
[1] = system: BFTC-905 (Bladder Carcinoma); assay: Bliss excess, mean over the matrix (fraction); higher = more synergy
Summary of the method: (§1)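 Cell lines in DMEM/F12 or RPMI with 10% FBS were plated in 1536-well plates, held 24 hours at 37°C, 5% CO2, then given two-drug dose matrices for 72 hours (DMSO typically 0.2%). Viability was read by CellTiter-Glo 2.0 luminescence and scaled as inhibition from 0 (vehicle wells) to 1 (blank wells). Combination Emax is the second-highest inhibition in the matrix; Bliss excess is observed combination effect minus expected EA + EB − EA·EB, EA and EB being single-agent effects.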

[2] = system: BL-41 (Burkitt's Lymphoma); assay: as above
Summary of the method: as §1

[3] = system: CAMA-1 (Breast Carcinoma); assay: as above
Summary of the method: as §1

[4] = system: DND-41 (T-Lymphoblastic Leukemia); assay: as above
Summary of the method: as §1

ES1 (Ewing's Sarcoma) [5] = assay: as above
Summary of the method: as §1

ES8 (Ewing's Sarcoma) [6] = assay: as above
Summary of the method: as §1

[7] = system: GR-ST (B-Lymphoblastic Leukemia); assay: as above
Summary of the method: as §1

[8] = system: K-562 (Chronic Myelogenous Leukemia); assay: as above
Summary of the method: as §1

[9] = system: L-540 (Hodgkin's Lymphoma); assay: as above
Summary of the method: as §1

[10] = system: MKN28 (Gastric Carcinoma); assay: as above
Summary of the method: as §1

[11] = system: NCI-H1792 (Lung Adenocarcinoma); assay: as above
Summary of the method: as §1

NCI-H2818 (Mesothelioma) [12] = assay: as above
Summary of the method: as §1

[13] = system: SR (Other Blood Carcinomas); assay: as above
Summary of the method: as §1

[14] = system: SW1417 (Colorectal Carcinoma); assay: as above
Summary of the method: as §1

[15] = system: SW837 (Colorectal Carcinoma); assay: as above
Summary of the method: as §1

WIL2-NS (Non-Cancerous) [16] = assay: as above
Summary of the method: as §1

WM-115 (Melanoma) [17] = assay: as above
Summary of the method: as §1

[18] = system: BFTC-905 (Bladder Carcinoma); assay: combination Emax (second highest fraction inhibited in the dose matrix, 72 h); higher = more inhibition; extreme values may be limits of the assay
Summary of the method: as §1

[19] = system: BL-41 (Burkitt's Lymphoma); assay: as above
Summary of the method: as §1

[20] = system: CAMA-1 (Breast Carcinoma); assay: as above
Summary of the method: as §1

[21] = system: DND-41 (T-Lymphoblastic Leukemia); assay: as above
Summary of the method: as §1

ES1 (Ewing's Sarcoma) [22] = assay: as above
Summary of the method: as §1

ES8 (Ewing's Sarcoma) [23] = assay: as above
Summary of the method: as §1

[24] = system: GR-ST (B-Lymphoblastic Leukemia); assay: as above
Summary of the method: as §1

[25] = system: K-562 (Chronic Myelogenous Leukemia); assay: as above
Summary of the method: as §1

[26] = system: L-540 (Hodgkin's Lymphoma); assay: as above
Summary of the method: as §1

[27] = system: MKN28 (Gastric Carcinoma); assay: as above
Summary of the method: as §1

[28] = system: NCI-H1792 (Lung Adenocarcinoma); assay: as above
Summary of the method: as §1

NCI-H2818 (Mesothelioma) [29] = assay: as above
Summary of the method: as §1

[30] = system: SR (Other Blood Carcinomas); assay: as above
Summary of the method: as §1

[31] = system: SW1417 (Colorectal Carcinoma); assay: as above
Summary of the method: as §1

[32] = system: SW837 (Colorectal Carcinoma); assay: as above
Summary of the method: as §1

WIL2-NS (Non-Cancerous) [33] = assay: as above
Summary of the method: as §1

WM-115 (Melanoma) [34] = assay: as above
Summary of the method: as §1
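For Bliss excess, mean over the matrix in this document: after 72 h of two-drug dosing.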

SMILES	Bliss excess [1]	Bliss excess [2]	Bliss excess [3]	Bliss excess [4]	Bliss excess (ES1 (Ewing's Sarcoma) [5])	Bliss excess (ES8 (Ewing's Sarcoma) [6])	Bliss excess [7]	Bliss excess [8]	Bliss excess [9]	Bliss excess [10]	Bliss excess [11]	Bliss excess (NCI-H2818 (Mesothelioma) [12])	Bliss excess [13]	Bliss excess [14]	Bliss excess [15]	Bliss excess (WIL2-NS (Non-Cancerous) [16])	Bliss excess (WM-115 (Melanoma) [17])	combination Emax [18]	combination Emax [19]	combination Emax [20]	combination Emax [21]	combination Emax (ES1 (Ewing's Sarcoma) [22])	combination Emax (ES8 (Ewing's Sarcoma) [23])	combination Emax [24]	combination Emax [25]	combination Emax [26]	combination Emax [27]	combination Emax [28]	combination Emax (NCI-H2818 (Mesothelioma) [29])	combination Emax [30]	combination Emax [31]	combination Emax [32]	combination Emax (WIL2-NS (Non-Cancerous) [33])	combination Emax (WM-115 (Melanoma) [34])
Cc1c2c(nn1C)CSCc1cc(n(C)n1)CSc1cc(c3ccccc3c1)OCCCc1c(C(=O)O)n(C)c3c-2c(Cl)ccc13 [AZD5991] + Nc1ccn([C@@H]2O[C@H](CO)[C@@H](O)C2(F)F)c(=O)n1 [Gemcitabine] (first compound max 1 µM, 7x7, partner max 0.3 µM)	-0.0194	-0.0263	0.133	0.021	0.0102	-0.0121	-0.0516	0.0045	0.0162	-0.0367	-0.0308	-0.0771	0.0073	0.0394	-0.0606	-0.0263	-0.0572	0.909	1	0.942	0.848	1	1	0.791	0.222	1	0.161	0.774	0.358	0.991	0.332	0.273	0.942	0.431
C[C@@H]1COCCN1c1cc(C2([S@](C)(=N)=O)CC2)nc(-c2ccnc3[nH]ccc23)n1 [AZD6738] + C1CC(C1)(C(=O)[O-])C(=O)[O-].N.N.[Pt+2] [Carboplatin] (first compound max 10 µM, 7x7, partner max 10 µM)	0.0337	-0.0271	-0.0454	-0.0146	-0.0078	0.0982	-0.0241	-0.031	-0.0267	-0.0242	-0.0303	-0.0286	-0.0383	-0.0074	-0.0837	-0.0241	-0.0607	0.723	0.974	0.381	0.919	0.917	0.925	0.747	0.847	0.894	0.327	0.733	0.378	0.879	0.375	0.402	0.922	0.425
